Patent US5064860A, “Method of inhibiting superoxide generation” (G. D. Searle & Co., priority 1990, dated 1991)
Entries after “also recorded” stand apart in the source; their conditions may differ. Where two headings read alike, the source gives them in different places.

Columns and labels:
5-lipoxygenase = target: T1, 5-lipoxygenase (Rattus norvegicus, UniProt P12527); assay: Inhibition of 5-lipoxygenase, in vitro (5-HETE synthesis from [1-14C]-arachidonic acid, RBL-1 supernatant); type: biochemical; settings: for IC50: RBL-1 100,000×g supernatant
T1 construct: Rat Basophilic Leukemia Cell Homogenate (RBL-1) serves as a 5-lipoxygenase enzyme source; endogenous in cells; host or cells: RBL-1 (rat basophilic leukemia) cells, 100,000×g supernatant of homogenate
T1 sequence (P12527 1-673): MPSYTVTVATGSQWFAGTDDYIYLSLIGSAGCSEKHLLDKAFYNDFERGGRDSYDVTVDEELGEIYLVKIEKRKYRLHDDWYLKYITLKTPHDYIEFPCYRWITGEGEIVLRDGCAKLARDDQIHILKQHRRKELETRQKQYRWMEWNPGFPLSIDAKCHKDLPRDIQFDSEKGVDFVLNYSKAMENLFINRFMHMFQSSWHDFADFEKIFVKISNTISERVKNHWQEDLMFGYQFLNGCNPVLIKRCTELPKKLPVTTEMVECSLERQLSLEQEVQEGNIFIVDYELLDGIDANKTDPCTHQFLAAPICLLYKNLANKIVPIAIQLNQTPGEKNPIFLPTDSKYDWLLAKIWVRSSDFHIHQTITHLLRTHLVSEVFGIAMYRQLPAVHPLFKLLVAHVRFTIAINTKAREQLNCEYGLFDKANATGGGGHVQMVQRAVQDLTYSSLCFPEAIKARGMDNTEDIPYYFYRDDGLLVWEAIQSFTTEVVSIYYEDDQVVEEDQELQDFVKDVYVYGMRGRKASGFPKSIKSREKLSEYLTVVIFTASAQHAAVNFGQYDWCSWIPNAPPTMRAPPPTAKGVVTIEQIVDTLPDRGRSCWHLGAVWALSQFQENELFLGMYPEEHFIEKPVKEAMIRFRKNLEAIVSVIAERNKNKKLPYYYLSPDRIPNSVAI
Protocol: Inhibition of 5-lipoxygenase, in vitro:
anti-inflammatory, anti-allergy activities.
The 100,000×g supernatant fraction of Rat Basophilic Leukemia Cell Homogenate (RBL-1) serves as a 5-lipoxygenase enzyme source. The enzyme is incubated with [1-^14 C)-arachidonic acid and Ca++ in the presence and absence of test compound. The product of 5-lipoxygenase, 5-hydroxyeicosatetraenoic acid (5-HETE), is separated by thin-layer chromatography and measured by radioactivity. A compound inhibiting 5-HETE synthesis by 30% or more is considered active at that concentration.

[1] = tested on: FMLP-stimulated human neutrophils; assay: Human neutrophil superoxide generation, FMLP-stimulated (cytochrome C reduction); type: cell-based; settings: for IC50: read-out: Inhibition of FMLP Induced Superoxide IC50
Protocol: Human neutropil suproxide generation: Superoxide generation by formyl-methionyl-leucyl-phenylalanine (FMLP)-stimulated neutrophils was quantitated by the reduction of cytochrome C (Badwey, J. A., Curnutte, J. T. and Karnovsky, M. L., cis-Polyunsaturated fatty acids induce high levels of superoxide production by human neutrophils. J. Biol. Chem. 256: 12640-12643, 1981.) To 5 million neutrophils in 2.85 ml of Krebs-Ringer phosphate buffer, pH 7.2, 50 μl of inhibitor (in 10% DMSO/buffer), and 50 ul ferricytochrome C (5 mM, stock) were added and preincubated for 3 minutes at 37° C. Absorption measurements at 550 nm were recorded at start of preincubation. Fifty ul FMLP (6 uM, stock) was added to initiate reaction. A plateau was reached within 3 minutes and this reading--initial reading (before addition of FMLP) was used to calculate nanomoles of superoxide generated based on a molar extinction coefficient of 2.1×10^4 cm^-1 mole^-1.
Isolation of human neutrophils: Human neutrophils were isolated from freshly drawn blood of healthy donors. Two ml of 5% dextran (MW 200,000-300,000) in saline was added to 10 ml aliquots of blood, mixed and placed upright for 45 min. at 37° C. Approx. 8-10 ml of the plasma-white cell suspension from the dextran sedimentation was layered on 3 ml of Ficol-paque in a ml tube and centrifuged at 400 g for 30 min. The supernate, containing plasma and platelets, was discarded by aspiration, and the pellet, containing predominantly neutrophils, was resuspended in 1 ml saline. The suspension was transferred to a clean tube, and pooled with other aliquots of blood treated similarly. The pooled suspension was centrifuged at 350 g for 5 min. and supernate discarded. The pellet was resuspended in 5 ml of 0.05% NaCl with a plastic Pasteur pipette for 25 seconds to lyse contaminating red cells, then 5 ml of 1.75% NaCl added to regain isotonicity. The red cell lysing procedure was repeated, the cells suspended in appropriate buffer (depending on assay) and counted.

[2] = Neutrophil, human neutrophils, FMLP

| IC50 (5-lipoxygenase) [µM] | IC50 [1, 2] [µM] | SMILES | other results |
| --- | --- | --- | --- |
| 4.9 | 11 | C[C@H](Sc1cc(C(C)(C)C)c(O)c(C(C)(C)C)c1)[C@@H](C)OCC(=O)O (relative stereo) [Example 9, 11, (±)[2S*-[[3,5-bis(1,1-dimethyl-ethyl)-4-hydroxyphenyl]thio]-1R*-methylpropoxy]acetic acid] |  |
|  | ~50 | C[C@@H](OCC(=O)O)[C@H](C)[S+]([O-])c1cc(C(C)(C)C)c(O)c(C(C)(C)C)c1 (relative stereo) [Example 12, (±)[2S*-[[3,5-bis(1,1-dimethylethyl)-4-hydroxyphenyl]sulfinyl]-1R*- methylpropoxy]acetic acid] | inhibition at 100 µM (5-lipoxygenase): 12% |
|  | ~30 | C[C@@H](OCC(=O)O)[C@H](C)S(=O)(=O)c1cc(C(C)(C)C)c(O)c(C(C)(C)C)c1 (relative stereo) [Example 13, (±)[2S*-[[3,5-bis(1,1-dimethylethyl)-4-hydroxyphenyl]sulfonyl]-1R*- methylpropoxy]acetic acid] | inhibition at 100 µM (5-lipoxygenase): 4% |
| 4.3 |  | C[C@H](Sc1cc(C(C)(C)C)c(O)c(C(C)(C)C)c1)[C@@H](C)OCC(=O)O (single isomer, unassigned) [Example 17, (-)[2S*-[[3,5-bis(1,1-dimethylethyl)-4-hydroxyphenyl]thio]-1R*-methylpropoxy]acetic acid] | IC50 ([1]; human neutrophils, FMLP): 10 µM |
| 3.5 | 10 | C[C@H](Sc1cc(C(C)(C)C)c(O)c(C(C)(C)C)c1)[C@@H](C)OCC(=O)O (single isomer, unassigned) [Example 18, (+)[2S*-[[3,5-bis(1,1-dimethylethyl)-4-hydroxyphenyl]thio]-1R*-methylpropoxy]acetic acid] |  |
| 3.3 | 5 | CC(C)(C)c1cc(SCCSCC(=O)O)cc(C(C)(C)C)c1O [Example 4, 5, [[2-[[3,5-bis(1,1-dimethylethyl)-4-hydroxyphenyl]thio]ethyl]thio]aceticacid] |  |
| 0.32 |  | CN(CCc1ccccn1)C(=O)CCSc1cc(C(C)(C)C)c(O)c(C(C)(C)C)c1 [Formula IV, reference compound] | 5-lipoxygenase inhibition, result in words (5-lipoxygenase): inhibited 5-lipoxygenase; activation at 5 µM ([1]; Homo sapiens, Neutrophil, at 5 μm, read-out: increase in superoxide generated by neutrophils): 50%; activation at 10 µM ([1]; Homo sapiens, Neutrophil, at 10 μm, read-out: increase in superoxide generated by neutrophils): 227%; FMLP Induced Superoxide, result in words ([1]; human neutrophils, FMLP): Stimulates; also recorded: did not inhibit superoxide generation |
